Test results taken from ChEMBL document CHEMBL4152336, “Optimization of the first small-molecule relaxin/insulin-like family peptide receptor (RXFP1) agonists: Activation results in an antifibrotic gene expression profile” (Eur J Med Chem, 2018).
Converted amounts (≈) assume the structure as drawn. The source made the active and inactive calls. The rule behind the calls is not given here.

Assays:
[1] = biological target: T1, Relaxin receptor 1 (Homo sapiens, UniProt Q9HBX9); format: functional, cell-based, HEK293
T1 sequence (Q9HBX9 whole entry): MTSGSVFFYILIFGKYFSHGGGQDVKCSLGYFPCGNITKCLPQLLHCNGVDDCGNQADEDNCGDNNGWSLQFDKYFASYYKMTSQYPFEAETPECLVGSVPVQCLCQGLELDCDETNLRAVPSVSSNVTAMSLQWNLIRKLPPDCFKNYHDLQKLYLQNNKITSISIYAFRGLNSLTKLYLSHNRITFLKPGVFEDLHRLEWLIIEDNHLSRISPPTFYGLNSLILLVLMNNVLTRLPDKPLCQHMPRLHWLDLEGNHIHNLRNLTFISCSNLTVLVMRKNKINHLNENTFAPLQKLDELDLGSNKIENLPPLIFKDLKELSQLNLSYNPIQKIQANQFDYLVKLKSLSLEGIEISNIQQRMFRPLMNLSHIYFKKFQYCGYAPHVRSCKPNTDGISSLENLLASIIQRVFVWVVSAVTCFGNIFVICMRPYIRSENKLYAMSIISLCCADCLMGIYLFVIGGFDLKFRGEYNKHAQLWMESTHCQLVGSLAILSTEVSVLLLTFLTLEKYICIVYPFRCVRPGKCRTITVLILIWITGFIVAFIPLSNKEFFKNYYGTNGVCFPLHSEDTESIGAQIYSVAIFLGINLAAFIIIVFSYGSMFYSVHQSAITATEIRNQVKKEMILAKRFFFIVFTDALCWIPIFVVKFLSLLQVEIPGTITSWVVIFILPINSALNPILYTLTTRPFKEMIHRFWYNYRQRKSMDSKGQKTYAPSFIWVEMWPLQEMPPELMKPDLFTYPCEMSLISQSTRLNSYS

[2] = biological target: T2, Relaxin receptor 1 (Homo sapiens) (UniProt Q9HBX9); format: functional, cell-based; conditions: HEK293
T2 sequence (whole entry): T1 sequence (Q9HBX9 whole entry)

[3] = rat, microsomes
Description: Half life in rat liver microsomes

[4] = Aqueous kinetic solubility of the compound in PBS by shake-flask method; format: physicochemical; conditions: for solubility kinetic: PBS, read-out: Kinetic_solubility
[5] = Metabolic stability in mouse liver microsomes assessed as parent compound remaining after 60 mins; format: ADME, microsome; conditions: read-out: Stability
[6] = test system: HEK293; assay: Cytotoxicity against HEK293 cells assessed as reduction in cell viability by measuring ATP level by ATPlite assay; format: cell-based; conditions: Homo sapiens

With `COc1ccccc1C(=O)Nc1ccccc1C(=O)Nc1cccc(S(=O)(=O)C(F)(F)F)c1` the EC50 ([1]; read-out: EC50) was 188 nM, the Efficacy [2] was 99% and the t1/2 [3] was over 30 min.

With `O=C(Nc1cccc(C(F)(F)F)c1)c1ccccc1NC(=O)C1CCCCCC1` the EC50 ([1]; read-out: EC50) was 2110 nM and the Efficacy [2] was 75%.

Compound `O=C(Nc1ccccc1C(=O)Nc1cccc(C(F)(F)F)c1)c1cccnc1` has an EC50 ([1]; read-out: EC50) of 5930 nM and an Efficacy [2] of 95%.

For `CCOc1ccccc1C(=O)Nc1cccnc1C(=O)Nc1cccc(S(=O)(=O)C(F)(F)F)c1`, the EC50 ([1]; read-out: EC50) was 4710 nM, the Efficacy [2] was 73% and the solubility kinetic [4] was under 1000 µM. The t1/2 [3] was over 30 min.

Compound `Cc1ccc(NC(=O)c2ccccc2NC(=O)C2CCCCC2)cc1` has an EC50 ([1]; read-out: EC50) of 187000 nM and an Efficacy [2] of 32%.

For `CCCCOc1ccccc1C(=O)Nc1ccccc1C(=O)Nc1cccc(S(=O)(=O)C(F)(F)F)c1`, the EC50 ([1]; read-out: EC50) was 47 nM, the Efficacy [2] was 98% and the solubility kinetic [4] was 5.3 µM (≈ 2.76 µg/mL). The t1/2 [3] was 19.5 min.

Compound `O=C(NCc1ccco1)c1ccccc1NC(=O)c1ccccc1NC(=O)C1CCCCC1` has an EC50 ([1]; read-out: EC50) of 9400 nM and an Efficacy [2] of 45%.

For `CC(C)(C)c1cccc(NC(=O)c2ccccc2NC(=O)C2CCCCC2)c1`, the EC50 ([1]; read-out: EC50) was 2660 nM and the Efficacy [2] was 70%.

For `O=C(Nc1ccc(C(F)(F)F)cc1)c1ccccc1NC(=O)C1CCCCC1`, the EC50 ([1]; read-out: EC50) was 94000 nM and the Efficacy [2] was 46%.

With `Cc1ccccc1NC(=O)c1ccccc1NC(=O)C1CCCCC1` the EC50 ([1]; hek293) was “Not Active” and the Efficacy [2] was “inactive”.

With `O=C(Nc1cccc(Cl)c1)c1ccccc1NC(=O)C1CCCCC1` the EC50 ([1]; read-out: EC50) was 3340 nM and the Efficacy [2] was 89%.

In the case of `O=C(Nc1cccc(S(=O)(=O)C(F)(F)F)c1)c1ccccc1NC(=O)c1ccccc1OCC(F)(F)F`, the EC50 ([1]; read-out: EC50) is reported as 67 nM, the Efficacy [2] is reported as 97% and the t1/2 [3] is reported as over 30 min.

`CC(C)Oc1ccccc1C(=O)Nc1ccccc1C(=O)Nc1cccc(C(F)(F)F)c1` gave an EC50 ([1]; read-out: EC50) of 471 nM and an Efficacy [2] of 99%.

Compound `CCOc1ccccc1C(=O)Nc1sccc1C(=O)Nc1cccc(S(=O)(=O)C(F)(F)F)c1` has an EC50 ([1]; read-out: EC50) of 2360 nM and an Efficacy [2] of 95%.

For `CCOc1ccccc1S(=O)(=O)Nc1ccccc1C(=O)Nc1cccc(S(=O)(=O)C(F)(F)F)c1`, the EC50 ([1]; hek293) was “Not Active” and the Efficacy [2] was “inactive”.

Work on `CSc1cccc(NC(=O)c2ccccc2NC(=O)C2CCCCC2)c1` yielded an EC50 ([1]; read-out: EC50) of 5290 nM and an Efficacy [2] of 84%.

For `COc1ccccc1C(=O)N(C)c1ccccc1C(=O)Nc1cccc(C(F)(F)F)c1`, the EC50 ([1]; hek293) was “Not Active” and the Efficacy [2] was “inactive”.

`CCOc1ccccc1C(=O)Nc1ccccc1C(=O)Nc1cccc(S(=O)(=O)C(F)(F)F)c1` gave a t1/2 [3] of over 30 min.

For `COc1cccc(OC)c1C(=O)Nc1ccccc1C(=O)Nc1cccc(C(F)(F)F)c1`, the EC50 ([1]; read-out: EC50) was 7470 nM and the Efficacy [2] was 42%.

Work on `COCCOc1ccccc1C(=O)Nc1ccccc1C(=O)Nc1cccc(C(F)(F)F)c1` yielded an EC50 ([1]; read-out: EC50) of 747 nM and an Efficacy [2] of 98%.

In the case of `O=C(Nc1cccc(C(F)(F)F)c1)c1ccccc1NC(=O)C1CC1`, the EC50 ([1]; read-out: EC50) is reported as 8380 nM and the Efficacy [2] is reported as 79%.

Work on `O=C(Nc1cccc(F)c1)c1ccccc1NC(=O)C1CCCCC1` yielded an EC50 ([1]; read-out: EC50) of 13300 nM and an Efficacy [2] of 81%.

In the case of `CCOc1ccccc1C(=O)Nc1ncccc1C(=O)Nc1cccc(S(=O)(=O)C(F)(F)F)c1`, the EC50 ([1]; read-out: EC50) is reported as 1670 nM, the Efficacy [2] is reported as 98% and the solubility kinetic [4] is reported as under 1000 µM. For the same compound, the t1/2 [3] was 19.85 min.

`O=C(Nc1cccc(C(F)(F)F)c1)c1ccccc1NC(=O)C1CCCCC1` showed an EC50 ([1]; read-out: EC50) of 1880 nM, an Efficacy [2] of 92% and a remaining at 1 h [5] of 70%.

With `COc1ccccc1C(=O)Nc1ccccc1C(=O)Nc1cccc(C(F)(F)F)c1` the EC50 ([1]; read-out: EC50) was 334 nM and the Efficacy [2] was 99%.

For `CCOc1ccccc1C(=O)Nc1ccncc1C(=O)Nc1cccc(S(=O)(=O)C(F)(F)F)c1`, the EC50 ([1]; read-out: EC50) was 747 nM, the Efficacy [2] was 97% and the t1/2 [3] was over 30 min.

For `O=C(Nc1ccccc1)c1ccccc1NC(=O)C1CCCCC1`, the EC50 ([1]; read-out: EC50) was 94000 nM and the Efficacy [2] was 57%.

`Cc1ccccc1C(=O)Nc1ccccc1C(=O)Nc1cccc(C(F)(F)F)c1` showed an EC50 ([1]; read-out: EC50) of 4200 nM and an Efficacy [2] of 90%.

For `COCCNc1ccccc1C(=O)Nc1cccc(C(F)(F)F)c1`, the EC50 ([1]; read-out: EC50) was 59300 nM and the Efficacy [2] was 63%.

With `O=C(Nc1cccc(C(F)(F)F)c1)c1ccccc1NC(=O)C1CCCC1` the EC50 ([1]; read-out: EC50) was 2360 nM and the Efficacy [2] was 88%.

Work on `CN(C)CCOc1ccccc1C(=O)Nc1ccccc1C(=O)Nc1cccc(C(F)(F)F)c1` yielded an EC50 ([1]; read-out: EC50) of 3740 nM and an Efficacy [2] of 92%.

`CCC(CC)C(=O)Nc1ccccc1C(=O)Nc1cccc(C(F)(F)F)c1` showed an EC50 ([1]; read-out: EC50) of 5290 nM and an Efficacy [2] of 59%.

Work on `CCOc1ccccc1C(=O)Nc1ccccc1C(=O)Nc1cccc(C(F)(F)F)c1` yielded an EC50 ([1]; read-out: EC50) of 265 nM and an Efficacy [2] of 94%.

Work on `CCCOc1ccccc1C(=O)Nc1ccccc1C(=O)Nc1cccc(S(=O)(=O)C(F)(F)F)c1` yielded an EC50 [6] of 9400 nM, an EC50 ([1]; read-out: EC50) of 52 nM and an Efficacy [2] of 98%. The solubility kinetic [4] was 17 µM (≈ 8.61 µg/mL) and the t1/2 [3] was 26.8 min.

`COc1cccc(C(=O)Nc2ccccc2C(=O)Nc2cccc(C(F)(F)F)c2)c1` gave an EC50 ([1]; read-out: EC50) of 1880 nM and an Efficacy [2] of 94%.

For `O=C(Nc1cccc(Br)c1)c1ccccc1NC(=O)C1CCCCC1`, the EC50 ([1]; read-out: EC50) was 2650 nM and the Efficacy [2] was 91%.

`COc1ccc(C(=O)Nc2ccccc2C(=O)Nc2cccc(C(F)(F)F)c2)cc1` gave an EC50 ([1]; read-out: EC50) of 9400 nM and an Efficacy [2] of 71%.

For `O=C(Nc1cccc(SC(F)(F)F)c1)c1ccccc1NC(=O)C1CCCCC1`, the EC50 ([1]; read-out: EC50) was 1880 nM and the Efficacy [2] was 90%.

`O=C(Nc1ccccc1C(=O)Nc1ccccc1C(=O)NCc1ccco1)c1ccco1` showed a remaining at 1 h [5] of 2% and a Kinetic_solubility ([4]; buffer) of 3.7 µM.

`COc1cccc(NC(=O)c2ccccc2NC(=O)C2CCCCC2)c1` showed an EC50 ([1]; read-out: EC50) of 37400 nM and an Efficacy [2] of 74%.

Compound `O=C(Nc1ccccc1C(=O)Nc1cccc(C(F)(F)F)c1)c1ccccc1Cl` has an EC50 ([1]; read-out: EC50) of 3740 nM and an Efficacy [2] of 92%.

Compound `COc1ccccc1C(=O)Nc1ccccc1C(=O)N(C)c1cccc(C(F)(F)F)c1` has an EC50 ([1]; read-out: EC50) of 29700 nM and an Efficacy [2] of 77%.

For `O=C(Nc1cccc([N+](=O)[O-])c1)c1ccccc1NC(=O)C1CCCCC1`, the EC50 ([1]; read-out: EC50) was 5930 nM and the Efficacy [2] was 93%.

With `O=C(Nc1cccc(S(=O)(=O)C(F)(F)F)c1)c1ccccc1NC(=O)C1CCCCC1` the EC50 ([1]; read-out: EC50) was 1060 nM and the Efficacy [2] was 87%.

Compound `CCOc1ccccc1C(=O)Nc1cnccc1C(=O)Nc1cccc(S(=O)(=O)C(F)(F)F)c1` has an EC50 ([1]; read-out: EC50) of 2970 nM, an Efficacy [2] of 99% and a solubility kinetic [4] of under 1000 µM.

`CCCCC(=O)Nc1ccccc1C(=O)Nc1cccc(C(F)(F)F)c1` showed an EC50 ([1]; read-out: EC50) of 5290 nM and an Efficacy [2] of 94%.

With `O=C(Nc1cccc(-c2ccccc2)c1)c1ccccc1NC(=O)C1CCCCC1` the EC50 ([1]; hek293) was “Not Active” and the Efficacy [2] was “inactive”.

In the case of `O=C(Nc1cccc(-c2cccc(C(F)(F)F)c2)c1)c1ccccc1NC(=O)C1CCCCC1`, the EC50 ([1]; hek293) is reported as “Not Active” and the Efficacy [2] is reported as “inactive”.

With `O=C(NCc1cccc(C(F)(F)F)c1)c1ccccc1NC(=O)C1CCCCC1` the EC50 ([1]; hek293) was “Not Active” and the Efficacy [2] was “inactive”.

Work on `O=C(Nc1cccc(C(F)(F)F)c1)c1ccccc1NC(=O)C1CCC1` yielded an EC50 ([1]; read-out: EC50) of 2970 nM and an Efficacy [2] of 75%.

With `O=C(Nc1cccc(-c2ccccc2C(F)(F)F)c1)c1ccccc1NC(=O)C1CCCCC1` the EC50 ([1]; read-out: EC50) was 2650 nM and the Efficacy [2] was 74%.

For `COc1ccccc1C(=O)Nc1cccc(C(=O)Nc2cccc(C(F)(F)F)c2)c1`, the EC50 ([1]; hek293) was “Not Active” and the Efficacy [2] was “inactive”.

In the case of `O=C(Nc1ccccc1C(=O)Nc1cccc(C(F)(F)F)c1)c1ccccc1`, the EC50 ([1]; read-out: EC50) is reported as 1320 nM and the Efficacy [2] is reported as 64%.

With `O=C(Cc1ccccc1)Nc1ccccc1C(=O)Nc1cccc(C(F)(F)F)c1` the EC50 ([1]; read-out: EC50) was 8380 nM and the Efficacy [2] was 86%.

`O=C(Nc1cccc(C(F)(F)F)c1)c1ccccc1NC(=O)c1ccccc1OC(F)(F)F` showed an EC50 ([1]; read-out: EC50) of 1180 nM and an Efficacy [2] of 96%.
